Measurements from ChEMBL document CHEMBL5241101, “Plant isoquinoline alkaloids: Advances in the chemistry and biology of berberine” (Eur J Med Chem, 2021).

Tests used:
[1] = test system: K562; assay: Cytotoxicity against human K562 cells assessed as cell growth inhibition incubated for 72 hrs by MTT assay; assay type: functional, cell-based; details: K562, 72 h
[2] = test system: A549; assay: Cytotoxicity against human A549 cells assessed as cell growth inhibition incubated for 72 hrs by MTT assay; assay type: functional, cell-based; details: A549, 72 h
[3] = test system: A549; assay: Cytotoxicity against human A549 cells assessed as cell growth inhibition incubated for 48 hrs by WST-1 assay; assay type: functional, cell-based; details: A549, 48 h
[4] = test system: COLO 201; assay: Cytotoxicity against human COLO201 cells assessed as cell growth inhibition incubated for 48 hrs by WST-1 assay; assay type: functional, cell-based; details: COLO 201, 48 h
[5] = test system: Jurkat; assay: Cytotoxicity against human Jurkat cells assessed as cell growth inhibition incubated for 48 hrs by WST-1 assay; assay type: functional, cell-based
[6] = test system: BT-549; assay: Cytotoxicity against human BT-549 cells assessed as cell growth inhibition incubated for 48 hrs by WST-1 assay; assay type: functional, cell-based; details: BT-549, 48 h
[7] = test system: MCF7; assay: Cytotoxicity against human MCF7 cells assessed as cell growth inhibition incubated for 48 hrs by WST-1 assay; assay type: functional, cell-based; details: MCF7, 48 h
[8] = test system: A2780; assay: Cytotoxicity against human A2780 cells assessed as cell growth inhibition incubated for 48 hrs by WST-1 assay; assay type: functional, cell-based; details: A2780, 48 h
[9] = test system: HL-60; assay: Cytotoxicity against human HL-60 cells assessed as cell growth inhibition incubated for 48 hrs by WST-1 assay; assay type: functional, cell-based; details: HL-60, 48 h
[10] = test system: HT-29; assay: Cytotoxicity against human HT-29 cells assessed as cell growth inhibition incubated for 48 hrs by WST-1 assay; assay type: functional, cell-based; details: HT-29, 48 h
[11] = test system: AGS; assay: Cytotoxicity against human AGS cells assessed as cell growth inhibition incubated for 48 hrs by WST-1 assay; assay type: functional, cell-based
[12] = test system: Caco-2; assay: Antiproliferative activity against human Caco-2 cells incubated for 96 hrs by MTT assay; assay type: functional, cell-based; details: Caco-2, 96 h
[13] = test system: HL-60; assay: Antiproliferative activity against human HL-60 cells incubated for 96 hrs by MTT assay; assay type: functional, cell-based; details: HL-60, 96 h
[14] = Toxicity in Sprague-Dawley rat assessed as LOAEL by po administrated gestational day upto 20 days; assay type: organism-based; details: in vivo, 480 h, time < 20 day
[15] = test system: HaCaT; assay: Cytotoxicity against human HaCaT cells assessed as decrease in cell viability at 50 uM incubated for 1 hr in presence of UV radiation by CellTiter-96 assay; assay type: toxicity, cell-based
[16] = test system: HaCaT; assay: Induction of DNA damage in human HaCaT cells assessed as fold change at 50 uM in presence of UV radiation by comet assay; assay type: toxicity, cell-based
[17] = Toxicity in Sprague-Dawley rat assessed as NOAEL by po administrated gestational day upto 20 days; assay type: organism-based; details: in vivo, time < 20 day
[18] = Oral bioavailability in Wistar rat at 100 mg/kg by UPLC-MS/MS analysis; assay type: ADME, organism-based; details: in vivo
[19] = test system: Jurkat; assay: Cytotoxicity against human Jurkat cells assessed as cell growth inhibition incubated for 48 hrs by XTT assay; assay type: functional, cell-based
[20] = test system: MOLT-4; assay: Cytotoxicity against human MOLT-4 cells assessed as cell growth inhibition incubated for 48 hrs by XTT assay; assay type: functional, cell-based; details: MOLT-4, 48 h
[21] = test system: HL-60; assay: Cytotoxicity against human HL-60 cells assessed as cell growth inhibition incubated for 48 hrs by XTT assay; assay type: functional, cell-based; details: HL-60, 48 h
[22] = test system: Plasmodium falciparum; assay: Antimalarial activity against chloroquine sensitive Plasmodium falciparum NF54 assessed as inhibition of parasite growth incubated for 72 hrs by [3H]-hypoxanthine incorporation assay based liquid scintillation counter; assay type: functional, organism-based
[23] = test system: Plasmodium falciparum; assay: Antimalarial activity against chloroquine resistant Plasmodium falciparum K1 assessed as inhibition of parasite growth incubated for 72 hrs by [3H]-hypoxanthine incorporation assay based liquid scintillation counter; assay type: functional, organism-based

Structure (SMILES): O[C@H]1[C@@H](c2nccc3c2[nH]c2ccccc23)[C@@H]2CCN3CCCC/C=C\CC[C@@]1(O)[C@@H]1NCCCC/C=C\CC[C@]21C3
- IC50 [1]: 5200 nM
- IC50 [2]: 5800 nM

Structure (SMILES): O[C@H]1[C@H]2c3cc4c(cc3CN3CCC(=C[C@@H]1O)[C@H]23)OCO4 [LYCORINE]
- IC50 [3]: 300 nM
- IC50 [4]: 300 nM
- IC50 [5]: 300 nM
- IC50 [6]: 300 nM
- IC50 [7]: 300 nM
- IC50 [8]: 300 nM
- IC50 [9]: 300 nM
- IC50 [10]: 300 nM
- IC50 [11]: 300 nM

Structure (SMILES): COC(=O)c1ccc(OC)c(OC)c1NC(=O)c1cc(C/C=C(\C)c2c3[n+](cc4c(OC)c(OC)ccc24)CCc2cc4c(cc2-3)OCO4)c2c(c1)OCO2
- IC50 [12]: 9240 nM
- IC50 [13]: 10200 nM

Structure (SMILES): CO[C@@H]1C=C[C@@]23c4cc5c(cc4[C@H](O)N(C[C@@H]2O)[C@H]3C1)OCO5
- IC50 [3]: 300 nM
- IC50 [4]: 300 nM
- IC50 [5]: 300 nM
- IC50 [6]: 300 nM
- IC50 [7]: 300 nM
- IC50 [8]: 300 nM
- IC50 [9]: 300 nM
- IC50 [10]: 300 nM
- IC50 [11]: 300 nM

Structure (SMILES): COc1ccc2cc3[n+](cc2c1OC)CCc1cc2c(cc1-3)OCO2 [BERBERINE]
- LOAEL [14]: 1313 mg/kg
- Activity [15]: 80%
- fold change (FC) [16]: 3
- NOAEL at 480 h [17]: 420 mg/kg
- bioavailability [18]: 0.36%

Structure (SMILES): CN1Cc2c(ccc3c2OCO3)[C@@H]2[C@H]1c1cc3c(cc1C[C@@H]2O)OCO3 [CHELIDONINE]
- IC50 [19]: 2200 nM
- IC50 [20]: 2200 nM
- IC50 [21]: 2200 nM

Structure (SMILES): [O-][N+]1=C([C@H]2[C@@H]3CCN4CCCC/C=C\CC[C@@]5(O[C@@H]25)[C@@H]2NCCCC/C=C\CC[C@@]23C4)c2[nH]c3ccccc3c2CC1
- IC50 [1]: 5200 nM
- IC50 [2]: 5800 nM

Structure (SMILES): COc1cc(O)c(-c2cc(-c3cc(-c4c(O)cc5c(c4OC)[C@@H](C)N[C@H](C)C5)c4cc(C)cc(OC)c4c3O)c(O)c3c(OC)cc(C)cc23)c2c1[C@H](C)N[C@H](C)C2
- IC50 [22]: 418 nM
- IC50 [23]: 452 nM

Structure (SMILES): O[C@@H]1CCCN2[C@@H](CC1)C[C@]13CN4CCCC/C=C\CC[C@](O)(C=C(c5nccc6c5[nH]c5ccccc56)[C@@H]1CC4)[C@H]23 [32,33-DIHYDRO-31-HYDROXYMANZAMINE A]
- IC50 [1]: 5200 nM
- IC50 [2]: 5800 nM

Structure (SMILES): CO[C@@H]1C=C[C@@]23c4cc5c(cc4CN(C[C@@H]2O)[C@H]3C1)OCO5 [(+)-HAEMANTHAMINE]
- IC50 [3]: 300 nM
- IC50 [4]: 300 nM
- IC50 [5]: 300 nM
- IC50 [6]: 300 nM
- IC50 [7]: 300 nM
- IC50 [8]: 300 nM
- IC50 [9]: 300 nM
- IC50 [10]: 300 nM
- IC50 [11]: 300 nM

Structure (SMILES): C1=C\CC[C@]23CN4CCCC/C=C\CC[C@@]5(O[C@H]5[C@@H](c5nccc6c5[nH]c5ccccc56)[C@@H]2CC4)[C@@H]3NCCCC/1 [MANZAMINE B]
- IC50 [1]: 5200 nM
- IC50 [2]: 5800 nM

Structure (SMILES): O[C@H]1/C=C\[C@H]2C[C@]34CN5CCCC/C=C\CC[C@](O)(C=C(c6nccc7c6[nH]c6ccccc67)[C@@H]3CC5)[C@@H]4N2CCC1
- IC50 [1]: 5200 nM
- IC50 [2]: 5800 nM

Structure (SMILES): COc1cc(O)c(-c2cc(-c3cc(-c4c(O)cc5c(c4OC)[C@H](C)N[C@H](C)C5)c4cc(C)cc(OC)c4c3O)c(O)c3c(OC)cc(C)cc23)c2c1[C@H](C)N[C@H](C)C2
- IC50 [22]: 34 nM

Structure (SMILES): O[C@]12C=C(c3nccc4c3[nH]c3ccccc34)[C@@H]3CCN(CCCC/C=C\CC1)C[C@@]31C[C@@H]3/C=C\CCCCN3[C@H]12 [MANZAMINE A]
- IC50 [1]: 5200 nM
- IC50 [2]: 5800 nM

Structure (SMILES): [O-][n+]1ccc2c([nH]c3ccccc32)c1[C@H]1[C@@H]2CCN3CCCC/C=C\CC[C@@]4(O[C@@H]14)[C@@H]1NCCCC/C=C\CC[C@@]12C3
- IC50 [1]: 5200 nM
- IC50 [2]: 5800 nM

Structure (SMILES): O[C@]12C=C(c3nccc4c3[nH]c3ccccc34)[C@@H]3CCN(CCCC/C=C\CC1)C[C@@]31C[C@@]34CC[C@@H](CCCN3[C@H]12)O4
- IC50 [1]: 5200 nM
- IC50 [2]: 5800 nM

Structure (SMILES): COc1cc(O)c(-c2cc(-c3cc(-c4c(O)cc5c(c4OC)[C@H](C)N[C@H](C)C5)c4cc(C)cc(OC)c4c3O)c(O)c3c(OC)cc(C)cc23)c2c1[C@@H](C)N[C@H](C)C2
- IC50 [22]: 210 nM
- IC50 [23]: 138 nM

Structure (SMILES): O[C@]12C=C(c3nccc4c3[nH]c3ccccc34)[C@@H]3CCN(CCCC/C=C\CC1)C[C@@]31C[C@@H]3C=C[C@H]4CCC[N@+]43[C@H]12
- IC50 [1]: 5200 nM
- IC50 [2]: 5800 nM

Structure (SMILES): COc1ccc2c(c1OC)CN(C)[C@@H]1c3cc4c(cc3C[C@H](O)[C@H]21)OCO4
- IC50 [19]: 4800 nM
- IC50 [20]: 4800 nM
- IC50 [21]: 4800 nM
